Results: PubChem BioAssay (NCI)
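Five compound concentrations were applied to cells in 96-well plates for 48 hours; endpoints were derived by simple linear interpolation of the resulting dose-response curve. GI50 marks 50% less growth. TGI: concentration producing complete growth inhibition.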

What was measured:
Assay in all cases: inhibition of tumour cell growth, NCI panel, 48 h
SK-OV-3 ovarian = test system: SK-OV-3 ovarian
PC-3 prostate = test system: PC-3 prostate
SR leukemia = test system: SR leukemia
OVCAR-3 ovarian = test system: OVCAR-3 ovarian
DU-145 prostate = test system: DU-145 prostate
NCI/ADR-RES ovarian = test system: NCI/ADR-RES ovarian
UACC-257 melanoma = test system: UACC-257 melanoma
TK-10 renal = test system: TK-10 renal
LOX IMVI melanoma = test system: LOX IMVI melanoma
A549 NSCLC = test system: A549 NSCLC
RXF 393 renal = test system: RXF 393 renal
SN12C renal = test system: SN12C renal
SNB-75 CNS = test system: SNB-75 CNS
MDA-MB-435 = test system: MDA-MB-435
MOLT-4 leukemia = test system: MOLT-4 leukemia
IGROV1 ovarian = test system: IGROV1 ovarian
OVCAR-8 ovarian = test system: OVCAR-8 ovarian
ACHN renal = test system: ACHN renal
SF-539 CNS = test system: SF-539 CNS
OVCAR-5 ovarian = test system: OVCAR-5 ovarian
SK-MEL-5 melanoma = test system: SK-MEL-5 melanoma
SNB-19 CNS = test system: SNB-19 CNS
K-562 leukemia = test system: K-562 leukemia
UACC-62 melanoma = test system: UACC-62 melanoma
HCC-2998 colon = test system: HCC-2998 colon
HCT-15 colon = test system: HCT-15 colon
NCI-H522 lung = test system: NCI-H522 lung
UO-31 renal = test system: UO-31 renal

Which results are given for C[C@]12CC[C@@H]3c4ccc(O)cc4CC[C@H]3[C@@H]1Cc1cnc(N)nc12?
GI50 (SK-OV-3 ovarian): 12.8 µM; TGI (SK-OV-3 ovarian): 33.5 µM; GI50 (PC-3 prostate): 15.7 µM; TGI (PC-3 prostate): 35.9 µM; GI50 (SR leukemia): 7.06 µM; TGI (SR leukemia): 39.2 µM; GI50 (OVCAR-3 ovarian): 23 µM; TGI (OVCAR-3 ovarian): 58.7 µM; GI50 (DU-145 prostate): 17.8 µM; TGI (DU-145 prostate): 47.3 µM; GI50 (NCI/ADR-RES ovarian): 17.7 µM; TGI (NCI/ADR-RES ovarian): 41.4 µM; GI50 (UACC-257 melanoma): 28.9 µM; TGI (UACC-257 melanoma): 74.1 µM; GI50 (TK-10 renal): 18.9 µM; TGI (TK-10 renal): 42.7 µM; GI50 (LOX IMVI melanoma): 17.4 µM; TGI (LOX IMVI melanoma): 31.3 µM; GI50 (A549 NSCLC): 44 µM; TGI (A549 NSCLC): > 100 µM; GI50 (RXF 393 renal): 11.5 µM; TGI (RXF 393 renal): 31.3 µM; GI50 (SN12C renal): 20.6 µM; TGI (SN12C renal): 44.2 µM; GI50 (SNB-75 CNS): 16.5 µM; TGI (SNB-75 CNS): 42.9 µM; GI50 (MDA-MB-435): 16.2 µM; TGI (MDA-MB-435): 43.5 µM; GI50 (MOLT-4 leukemia): 13 µM; TGI (MOLT-4 leukemia): 41.1 µM; GI50 (IGROV1 ovarian): 35.1 µM; TGI (IGROV1 ovarian): > 100 µM; GI50 (OVCAR-8 ovarian): 92.9 µM; TGI (OVCAR-8 ovarian): > 100 µM; GI50 (ACHN renal): 21.1 µM; TGI (ACHN renal): 51.3 µM; GI50 (SF-539 CNS): 14.8 µM; TGI (SF-539 CNS): 30.5 µM; GI50 (OVCAR-5 ovarian): 28.9 µM; TGI (OVCAR-5 ovarian): 76.1 µM; GI50 (SK-MEL-5 melanoma): 12.8 µM; TGI (SK-MEL-5 melanoma): 26.1 µM; GI50 (SNB-19 CNS): 14.4 µM; TGI (SNB-19 CNS): 43 µM; GI50 (K-562 leukemia): 7.97 µM; TGI (K-562 leukemia): 42.6 µM; GI50 (UACC-62 melanoma): 13.6 µM; TGI (UACC-62 melanoma): 27.2 µM; GI50 (HCC-2998 colon): 9.36 µM; TGI (HCC-2998 colon): 26.1 µM; GI50 (HCT-15 colon): 16.5 µM; TGI (HCT-15 colon): 39.1 µM; GI50 (NCI-H522 lung): 17.3 µM; TGI (NCI-H522 lung): 41.2 µM; GI50 (UO-31 renal): 19 µM; TGI (UO-31 renal): 43.7 µM
